Source: paper PMC7827406, “Structure–Activity Relationship (SAR) Study of Spautin-1 to Entail the Discovery of Novel NEK4 Inhibitors” (International Journal of Molecular Sciences, 2021)
Like-named read-outs stand apart in the source and are kept apart here.

Experiments:
Assay in all cases: biochemical
Set-up in all cases: Eurofins KinaseProfiler full panel at Km ATP, residual kinase activity (%) relative to DMSO
cKit(V560G)(h) = target: T1, cKit(V560G)(h) (Homo sapiens, UniProt P10721, V560G)
T1 construct: gene KIT
T1 sequence (P10721 whole entry V560G): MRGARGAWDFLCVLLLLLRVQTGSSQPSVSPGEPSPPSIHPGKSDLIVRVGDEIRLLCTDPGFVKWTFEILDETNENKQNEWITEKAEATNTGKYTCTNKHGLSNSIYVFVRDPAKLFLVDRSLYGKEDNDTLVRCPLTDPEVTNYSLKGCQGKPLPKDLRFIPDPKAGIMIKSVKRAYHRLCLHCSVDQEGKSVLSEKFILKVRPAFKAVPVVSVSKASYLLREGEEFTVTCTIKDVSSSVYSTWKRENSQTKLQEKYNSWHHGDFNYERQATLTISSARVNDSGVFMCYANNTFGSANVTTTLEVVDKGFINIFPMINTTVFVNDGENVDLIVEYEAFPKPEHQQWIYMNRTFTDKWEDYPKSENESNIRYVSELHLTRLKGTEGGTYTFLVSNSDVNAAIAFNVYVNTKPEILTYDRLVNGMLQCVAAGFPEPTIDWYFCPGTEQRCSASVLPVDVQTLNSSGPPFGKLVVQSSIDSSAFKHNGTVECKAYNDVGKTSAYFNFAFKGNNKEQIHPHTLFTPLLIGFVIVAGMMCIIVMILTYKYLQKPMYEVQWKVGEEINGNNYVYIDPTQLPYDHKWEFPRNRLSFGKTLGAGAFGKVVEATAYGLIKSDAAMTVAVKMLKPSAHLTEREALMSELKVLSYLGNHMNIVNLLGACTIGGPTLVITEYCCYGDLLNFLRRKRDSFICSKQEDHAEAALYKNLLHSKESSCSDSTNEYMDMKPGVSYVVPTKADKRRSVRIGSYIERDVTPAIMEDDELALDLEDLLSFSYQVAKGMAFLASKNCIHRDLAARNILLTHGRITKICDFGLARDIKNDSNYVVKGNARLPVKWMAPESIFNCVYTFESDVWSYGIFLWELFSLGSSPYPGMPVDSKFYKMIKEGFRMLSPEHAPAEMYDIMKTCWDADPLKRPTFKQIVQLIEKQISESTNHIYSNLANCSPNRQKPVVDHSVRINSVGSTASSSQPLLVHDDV
Procedure, shortened: (§1)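 Compounds screened at 10 µM in radiometric kinase activity assays at Km ATP, reported as remaining kinase activity (%). A KINOMEscan competition-binding screen at 10 µM measured DNA-tagged kinase retained on immobilized active-site ligand by qPCR.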

JAK2(h) = JAK2(h) (Homo sapiens, UniProt O60674)
Sequence of JAK2(h) (O60674 whole entry): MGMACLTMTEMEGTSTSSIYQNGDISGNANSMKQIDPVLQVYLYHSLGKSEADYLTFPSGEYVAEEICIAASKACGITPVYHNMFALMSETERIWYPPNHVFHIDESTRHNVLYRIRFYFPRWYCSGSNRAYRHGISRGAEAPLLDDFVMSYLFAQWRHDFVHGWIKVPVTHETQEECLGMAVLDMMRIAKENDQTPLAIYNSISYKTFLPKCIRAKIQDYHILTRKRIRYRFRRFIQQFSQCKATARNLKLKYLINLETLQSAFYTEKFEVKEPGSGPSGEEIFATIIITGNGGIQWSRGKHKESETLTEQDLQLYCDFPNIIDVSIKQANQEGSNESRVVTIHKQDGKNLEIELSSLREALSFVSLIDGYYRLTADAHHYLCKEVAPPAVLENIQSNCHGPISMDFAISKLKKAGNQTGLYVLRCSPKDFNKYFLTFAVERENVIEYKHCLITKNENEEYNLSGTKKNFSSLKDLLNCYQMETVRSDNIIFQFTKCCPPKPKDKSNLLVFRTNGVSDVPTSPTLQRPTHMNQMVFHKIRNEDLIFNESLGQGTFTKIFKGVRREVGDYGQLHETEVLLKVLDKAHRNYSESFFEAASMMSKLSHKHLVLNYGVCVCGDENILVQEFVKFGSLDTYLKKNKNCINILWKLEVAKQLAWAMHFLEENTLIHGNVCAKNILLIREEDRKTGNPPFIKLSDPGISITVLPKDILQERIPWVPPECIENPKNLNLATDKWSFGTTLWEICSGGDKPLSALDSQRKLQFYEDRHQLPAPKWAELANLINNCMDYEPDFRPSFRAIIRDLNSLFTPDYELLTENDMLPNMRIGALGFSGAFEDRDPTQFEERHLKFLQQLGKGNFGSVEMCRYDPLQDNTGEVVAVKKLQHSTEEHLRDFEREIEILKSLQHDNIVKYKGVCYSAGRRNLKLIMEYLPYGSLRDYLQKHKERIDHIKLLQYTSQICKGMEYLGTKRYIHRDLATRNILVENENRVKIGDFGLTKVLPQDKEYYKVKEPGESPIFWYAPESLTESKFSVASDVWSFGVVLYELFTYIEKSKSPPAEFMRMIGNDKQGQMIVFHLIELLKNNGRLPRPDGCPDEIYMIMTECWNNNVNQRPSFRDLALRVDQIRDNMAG
Procedure, shortened: as §1

Fgr(h) = Fgr(h) (Homo sapiens, UniProt P09769)
Sequence of Fgr(h) (P09769 whole entry): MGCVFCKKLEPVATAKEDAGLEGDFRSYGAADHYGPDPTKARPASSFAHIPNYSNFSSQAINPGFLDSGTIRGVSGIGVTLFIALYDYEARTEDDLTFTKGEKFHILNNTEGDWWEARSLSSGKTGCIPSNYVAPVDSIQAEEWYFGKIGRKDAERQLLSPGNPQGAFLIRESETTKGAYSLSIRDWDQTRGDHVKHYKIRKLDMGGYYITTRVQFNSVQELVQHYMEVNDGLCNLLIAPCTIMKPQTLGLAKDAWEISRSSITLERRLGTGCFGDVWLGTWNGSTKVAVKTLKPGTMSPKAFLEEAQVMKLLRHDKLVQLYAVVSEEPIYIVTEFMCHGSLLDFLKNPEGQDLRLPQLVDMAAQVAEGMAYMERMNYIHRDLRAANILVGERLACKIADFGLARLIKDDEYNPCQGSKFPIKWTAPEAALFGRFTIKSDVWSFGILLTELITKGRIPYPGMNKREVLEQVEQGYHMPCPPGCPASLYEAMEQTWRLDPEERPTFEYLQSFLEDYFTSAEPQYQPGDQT
Procedure, shortened: as §1

MEKK3(h) = target: T2, MEKK3(h) (Homo sapiens, UniProt Q99759)
T2 construct: gene MAP3K3
T2 sequence (Q99759 1-626): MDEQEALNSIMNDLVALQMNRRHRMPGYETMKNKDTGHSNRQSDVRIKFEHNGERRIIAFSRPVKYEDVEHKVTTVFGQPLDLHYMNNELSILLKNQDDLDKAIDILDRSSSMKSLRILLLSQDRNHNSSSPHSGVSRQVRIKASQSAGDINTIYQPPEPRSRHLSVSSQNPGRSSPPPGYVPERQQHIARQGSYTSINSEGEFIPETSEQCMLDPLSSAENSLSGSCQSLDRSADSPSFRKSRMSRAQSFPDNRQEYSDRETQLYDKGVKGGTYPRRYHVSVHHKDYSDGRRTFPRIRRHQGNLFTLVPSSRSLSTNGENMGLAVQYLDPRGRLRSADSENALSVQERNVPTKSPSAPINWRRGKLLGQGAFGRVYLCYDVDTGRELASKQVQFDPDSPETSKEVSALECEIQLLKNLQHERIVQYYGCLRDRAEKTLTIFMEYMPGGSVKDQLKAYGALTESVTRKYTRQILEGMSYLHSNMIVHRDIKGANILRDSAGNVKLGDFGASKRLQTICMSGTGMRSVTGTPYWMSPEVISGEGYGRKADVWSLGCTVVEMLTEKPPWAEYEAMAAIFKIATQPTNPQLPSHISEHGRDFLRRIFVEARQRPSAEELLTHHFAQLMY
Procedure, shortened: as §1

PAK2(h) = PAK2(h) (Homo sapiens, UniProt Q13177)
Sequence of PAK2(h) (Q13177 whole entry): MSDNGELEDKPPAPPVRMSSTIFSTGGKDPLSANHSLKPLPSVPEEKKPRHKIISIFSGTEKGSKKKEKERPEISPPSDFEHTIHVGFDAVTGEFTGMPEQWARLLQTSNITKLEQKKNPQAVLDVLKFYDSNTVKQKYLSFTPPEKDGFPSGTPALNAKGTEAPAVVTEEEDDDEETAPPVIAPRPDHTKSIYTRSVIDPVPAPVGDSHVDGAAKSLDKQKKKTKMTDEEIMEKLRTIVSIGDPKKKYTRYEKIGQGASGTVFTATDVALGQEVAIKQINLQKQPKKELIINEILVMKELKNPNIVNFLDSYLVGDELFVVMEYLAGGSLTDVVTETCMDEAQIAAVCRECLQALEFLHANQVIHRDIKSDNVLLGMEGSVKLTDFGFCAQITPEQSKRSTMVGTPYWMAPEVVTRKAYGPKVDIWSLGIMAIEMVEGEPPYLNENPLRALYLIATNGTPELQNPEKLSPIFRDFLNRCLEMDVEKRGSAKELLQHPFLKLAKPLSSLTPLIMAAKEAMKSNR
Procedure, shortened: as §1

ErbB2(h) = ErbB2(h) (Homo sapiens, UniProt P04626)
Sequence of ErbB2(h) (P04626 whole entry): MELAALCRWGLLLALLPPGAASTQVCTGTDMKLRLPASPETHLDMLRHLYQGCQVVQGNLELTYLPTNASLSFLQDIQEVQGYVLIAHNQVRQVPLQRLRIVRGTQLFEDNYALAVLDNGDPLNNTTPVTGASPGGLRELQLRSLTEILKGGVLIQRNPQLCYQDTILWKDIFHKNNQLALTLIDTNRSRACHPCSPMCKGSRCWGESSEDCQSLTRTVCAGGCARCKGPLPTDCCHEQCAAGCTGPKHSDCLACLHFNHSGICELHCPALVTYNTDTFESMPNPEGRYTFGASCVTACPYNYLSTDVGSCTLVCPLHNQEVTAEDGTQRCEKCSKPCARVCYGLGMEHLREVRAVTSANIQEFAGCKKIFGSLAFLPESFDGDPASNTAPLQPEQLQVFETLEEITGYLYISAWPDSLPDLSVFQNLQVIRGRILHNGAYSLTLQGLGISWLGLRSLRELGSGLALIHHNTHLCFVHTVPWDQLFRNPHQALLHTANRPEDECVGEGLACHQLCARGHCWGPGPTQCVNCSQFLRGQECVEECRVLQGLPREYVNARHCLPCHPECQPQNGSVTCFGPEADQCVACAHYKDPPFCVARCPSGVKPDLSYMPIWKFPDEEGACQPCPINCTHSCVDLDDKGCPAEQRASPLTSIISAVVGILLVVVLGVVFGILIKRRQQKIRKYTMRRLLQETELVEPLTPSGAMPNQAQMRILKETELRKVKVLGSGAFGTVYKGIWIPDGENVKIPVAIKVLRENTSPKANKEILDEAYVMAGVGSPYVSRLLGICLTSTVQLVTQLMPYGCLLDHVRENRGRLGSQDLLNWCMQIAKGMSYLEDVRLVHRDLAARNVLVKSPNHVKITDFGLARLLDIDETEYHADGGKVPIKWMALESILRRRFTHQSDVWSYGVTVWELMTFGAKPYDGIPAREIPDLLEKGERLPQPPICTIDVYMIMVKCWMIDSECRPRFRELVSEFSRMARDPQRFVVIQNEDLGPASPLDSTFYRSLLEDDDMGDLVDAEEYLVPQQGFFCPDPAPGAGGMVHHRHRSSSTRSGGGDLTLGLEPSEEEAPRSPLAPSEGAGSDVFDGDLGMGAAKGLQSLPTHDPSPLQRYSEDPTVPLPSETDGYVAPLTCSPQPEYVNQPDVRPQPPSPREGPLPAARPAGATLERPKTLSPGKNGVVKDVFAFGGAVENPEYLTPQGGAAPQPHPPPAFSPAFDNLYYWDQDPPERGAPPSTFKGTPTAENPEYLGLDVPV
Procedure, shortened: as §1

Ros(h) = target: T3, Ros(h) (Homo sapiens, UniProt P08922)
T3 construct: gene ROS1
Procedure, shortened: as §1

JAK1(h) = JAK1(h) (Homo sapiens, UniProt P23458)
Procedure, shortened: as §1

MAPKAP-K3(h) = target: T4, MAPKAP-K3(h) (Homo sapiens, UniProt Q16644)
T4 construct: gene MAPKAPK3
T4 sequence (Q16644 whole entry): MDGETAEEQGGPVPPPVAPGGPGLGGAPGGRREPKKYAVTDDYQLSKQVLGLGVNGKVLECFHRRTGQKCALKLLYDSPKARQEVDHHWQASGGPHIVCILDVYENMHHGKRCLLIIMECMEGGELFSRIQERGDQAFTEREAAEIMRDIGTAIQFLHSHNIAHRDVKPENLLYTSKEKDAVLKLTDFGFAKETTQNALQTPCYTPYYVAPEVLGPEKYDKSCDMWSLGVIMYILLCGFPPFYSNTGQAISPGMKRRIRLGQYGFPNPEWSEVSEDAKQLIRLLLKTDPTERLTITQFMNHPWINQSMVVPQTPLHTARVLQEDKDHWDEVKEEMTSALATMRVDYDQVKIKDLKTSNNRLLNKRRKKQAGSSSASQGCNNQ
Procedure, shortened: as §1

Rse(h) = target: T5, Rse(h) (Homo sapiens, UniProt Q06418)
T5 construct: gene TYRO3
T5 sequence (Q06418 1-890): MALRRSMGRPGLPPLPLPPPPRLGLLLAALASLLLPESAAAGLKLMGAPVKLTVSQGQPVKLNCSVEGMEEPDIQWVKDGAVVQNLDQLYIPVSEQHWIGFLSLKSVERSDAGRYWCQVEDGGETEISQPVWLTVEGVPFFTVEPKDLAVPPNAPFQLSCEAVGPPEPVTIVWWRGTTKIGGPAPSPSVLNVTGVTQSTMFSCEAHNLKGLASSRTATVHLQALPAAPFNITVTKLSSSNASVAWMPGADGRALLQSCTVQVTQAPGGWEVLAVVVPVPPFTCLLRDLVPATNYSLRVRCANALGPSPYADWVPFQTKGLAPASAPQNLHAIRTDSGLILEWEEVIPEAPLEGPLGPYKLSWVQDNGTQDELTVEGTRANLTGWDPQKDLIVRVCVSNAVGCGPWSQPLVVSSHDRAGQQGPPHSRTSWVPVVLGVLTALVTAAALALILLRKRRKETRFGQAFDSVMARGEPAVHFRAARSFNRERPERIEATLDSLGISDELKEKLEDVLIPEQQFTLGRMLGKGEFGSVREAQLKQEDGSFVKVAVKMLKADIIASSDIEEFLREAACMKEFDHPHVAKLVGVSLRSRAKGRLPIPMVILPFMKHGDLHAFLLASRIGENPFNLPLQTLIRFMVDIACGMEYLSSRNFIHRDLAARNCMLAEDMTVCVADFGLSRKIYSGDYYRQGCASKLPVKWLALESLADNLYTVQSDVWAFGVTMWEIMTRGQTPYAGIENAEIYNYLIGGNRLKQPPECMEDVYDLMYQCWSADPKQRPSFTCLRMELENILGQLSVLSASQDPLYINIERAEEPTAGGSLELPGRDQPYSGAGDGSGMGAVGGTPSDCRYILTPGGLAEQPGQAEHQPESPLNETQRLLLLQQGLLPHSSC
Procedure, shortened: as §1

[1] = read-out: Residual activity (%) Spautin-1 5aa
[2] = read-out: Residual activity (%) 5as
[3] = read-out: Residual activity (%) 5at
[4] = read-out: Residual activity (%) 5ay

## Fc1ccc(CNc2ncnc3ccc(F)cc23)cc1 [5aa, 6-Fluoro-N-(4-fluorobenzyl)-4-Quinazolinamine]
cKit(V560G)(h); [1]
  remaining activity at 10 µM: 85%
JAK2(h); [1]
  remaining activity at 10 µM: 91%
Fgr(h); [1]
  remaining activity at 10 µM: 112%
MEKK3(h); [1]
  remaining activity at 10 µM: 93%
PAK2(h); [1]
  remaining activity at 10 µM: 87%
ErbB2(h); [1]
  remaining activity at 10 µM: 74%
Ros(h); [1]
  remaining activity at 10 µM: 95%
JAK1(h); [1]
  remaining activity at 10 µM: 117%
MAPKAP-K3(h); [1]
  remaining activity at 10 µM: 95%
Rse(h); [1]
  remaining activity at 10 µM: 104%

## Fc1ccc(CCNc2ncnc3ccc(F)cc23)cc1 [5as, 6-Fluoro-N-[2-(4-Fluorophenyl)Ethyl]-4-Quinazolinamine]
cKit(V560G)(h); [2]
  remaining activity at 10 µM: 105%
JAK2(h); [2]
  remaining activity at 10 µM: 93%
Fgr(h); [2]
  remaining activity at 10 µM: 114%
MEKK3(h); [2]
  remaining activity at 10 µM: 107%
PAK2(h); [2]
  remaining activity at 10 µM: 94%
ErbB2(h); [2]
  remaining activity at 10 µM: 79%
Ros(h); [2]
  remaining activity at 10 µM: 101%
JAK1(h); [2]
  remaining activity at 10 µM: 93%
MAPKAP-K3(h); [2]
  remaining activity at 10 µM: 66%
Rse(h); [2]
  remaining activity at 10 µM: 100%

## Fc1ccc2ncnc(NCCc3ccc(Cl)cc3)c2c1 [5at, N-[2-(4-Chlorophenyl)Ethyl]-6-Fluoro-4-Quinazolinamine]
cKit(V560G)(h); [3]
  remaining activity at 10 µM: 90%
JAK2(h); [3]
  remaining activity at 10 µM: 86%
Fgr(h); [3]
  remaining activity at 10 µM: 95%
MEKK3(h); [3]
  remaining activity at 10 µM: 98%
PAK2(h); [3]
  remaining activity at 10 µM: 78%
ErbB2(h); [3]
  remaining activity at 10 µM: 65%
Ros(h); [3]
  remaining activity at 10 µM: 105%
JAK1(h); [3]
  remaining activity at 10 µM: 99%
MAPKAP-K3(h); [3]
  remaining activity at 10 µM: 83%
Rse(h); [3]
  remaining activity at 10 µM: 103%

## COc1ccc2ncnc(Nc3cccc(F)c3)c2c1 [5ay, N-(3-Fluorophenyl)-6-Methoxy-4-Quinazolinamine]
cKit(V560G)(h); [4]
  remaining activity at 10 µM: 106%
JAK2(h); [4]
  remaining activity at 10 µM: 108%
Fgr(h); [4]
  remaining activity at 10 µM: 90%
MEKK3(h); [4]
  remaining activity at 10 µM: 83%
PAK2(h); [4]
  remaining activity at 10 µM: 98%
ErbB2(h); [4]
  remaining activity at 10 µM: 20%
Ros(h); [4]
  remaining activity at 10 µM: 101%
JAK1(h); [4]
  remaining activity at 10 µM: 90%
MAPKAP-K3(h); [4]
  remaining activity at 10 µM: 78%
Rse(h); [4]
  remaining activity at 10 µM: 107%
